{
  "source": "ChEMBL document CHEMBL4627394",
  "about": "“A Grand Challenge. 3. Unbiased Phenotypic Function of Metabolites from Australia Plants Gloriosa superba and Alangium villosum against Parkinson's Disease” (J Nat Prod, 2020)",
  "key": {"[1]": {"assay": "Cytotoxicity against Parkinson's disease patient derived human ONS cells assessed as effect on nucleus morphology parameters at 10 uM after 24 hrs by DAPI staining based fluorescence assay"}, "[2]": {"assay": "Cytotoxicity against Parkinson's disease patient derived human ONS cells assessed as effect on cell morphology parameters at 10 uM after 24 hrs by DAPI staining based fluorescence assay"}, "Homo sapiens": {"species_on_record": "Homo sapiens", "assay": "Effect on early endosome parameters in Parkinson's disease patient derived human ONS cells at 10 uM after 24 hrs by EEA1 staining based fluorescence assay", "format": "functional"}},
  "note": "The source made the active and inactive calls. No cut-off for these calls is given here.",
  "data": [
    {"smiles": "COC1=C[C@@H]2C3=C([C@@H]2C1=O)[C@@H](NC(C)=O)CCc1cc(OC)c(O[C@@H]2O[C@H](CO)[C@@H](O)[C@H](O)[C@H]2O)c(OC)c13", "values": [
      {"measurement": "Activity", "setting": "[1]", "result": "Non-Toxic"},
      {"measurement": "Activity", "setting": "[2]", "result": "Non-Toxic"}
    ]},
    {"smiles": "COc1cc2c(c(OC)c1OC)-c1ccc(OC)c(=O)cc1[C@@H](NC=O)CC2", "values": [
      {"measurement": "Activity", "setting": "[1]", "result": "Non-Toxic"},
      {"measurement": "Activity", "setting": "[2]", "result": "Non-Toxic"}
    ]},
    {"smiles": "CC[C@H]1CN2CCc3cc(O)c(OC)cc3[C@@H]2C[C@@H]1C[C@H]1NCCc2c1[nH]c1ccc(O)cc21.O=C(O)C(F)(F)F.O=C(O)C(F)(F)F", "values": [
      {"measurement": "Activity", "setting": "Homo sapiens", "result": "Active"},
      {"measurement": "Activity", "setting": "[1]", "result": "Non-Toxic"},
      {"measurement": "Activity", "setting": "[2]", "result": "Non-Toxic"}
    ]},
    {"smiles": "COC1=C[C@H]2C3=C([C@H]2C1=O)[C@@H](NC(C)=O)CCc1cc(OC)c(O[C@@H]2O[C@H](CO)[C@@H](O)[C@H](O)[C@H]2O)c(OC)c13", "values": [
      {"measurement": "Activity", "setting": "[1]", "result": "Non-Toxic"},
      {"measurement": "Activity", "setting": "[2]", "result": "Non-Toxic"}
    ]},
    {"smiles": "COC1=C[C@@H]2C3=C([C@@H]2C1=O)[C@@H](NC=O)CCc1cc(OC)c(O[C@@H]2O[C@H](CO)[C@@H](O)[C@H](O)[C@H]2O)c(OC)c13", "values": [
      {"measurement": "Activity", "setting": "[1]", "result": "Non-Toxic"},
      {"measurement": "Activity", "setting": "[2]", "result": "Non-Toxic"}
    ]},
    {"smiles": "CC[C@H]1CN2CCc3cc(O)c(OC)cc3[C@@H]2C[C@@H]1C[C@@H]1NCCc2c1[nH]c1ccc(O)cc21.O=C(O)C(F)(F)F.O=C(O)C(F)(F)F", "values": [
      {"measurement": "Activity", "setting": "Homo sapiens", "result": "Active"},
      {"measurement": "Activity", "setting": "[1]", "result": "Non-Toxic"},
      {"measurement": "Activity", "setting": "[2]", "result": "Non-Toxic"}
    ]},
    {"smiles": "COC1=C[C@@H]2C3=C([C@@H]2C1=O)[C@@H](NC=O)CCc1cc(OC)c(OC)c(OC)c13", "values": [
      {"measurement": "Activity", "setting": "[1]", "result": "Non-Toxic"},
      {"measurement": "Activity", "setting": "[2]", "result": "Non-Toxic"}
    ]},
    {"smiles": "CC[C@H]1CN2CCc3cc(O)c(OC)cc3[C@@H]2C[C@@H]1C[C@H]1NCCc2c1[nH]c1ccccc21.O=C(O)C(F)(F)F.O=C(O)C(F)(F)F", "values": [
      {"measurement": "Activity", "setting": "Homo sapiens", "result": "Active"},
      {"measurement": "Activity", "setting": "[1]", "result": "Non-Toxic"},
      {"measurement": "Activity", "setting": "[2]", "result": "Non-Toxic"}
    ]},
    {"smiles": "CC[C@H]1C[N@@+]2(O)CCc3cc(O)c(OC)cc3[C@@H]2C[C@@H]1C[C@H]1NCCc2c1[nH]c1ccc(O)cc21.O=C(O)C(F)(F)F.O=C([O-])C(F)(F)F", "values": [
      {"measurement": "Activity", "setting": "Homo sapiens", "result": "Active"},
      {"measurement": "Activity", "setting": "[1]", "result": "Non-Toxic"},
      {"measurement": "Activity", "setting": "[2]", "result": "Non-Toxic"}
    ]},
    {"smiles": "CC[C@H]1C[N@+]2(O)CCc3cc(OC)c(OC)cc3[C@@H]2C[C@@H]1C[C@@H]1NCCc2c1[nH]c1ccc(O)cc21.O=C(O)C(F)(F)F.O=C([O-])C(F)(F)F", "values": [
      {"measurement": "Activity", "setting": "Homo sapiens", "result": "Active"},
      {"measurement": "Activity", "setting": "[1]", "result": "Non-Toxic"},
      {"measurement": "Activity", "setting": "[2]", "result": "Non-Toxic"}
    ]},
    {"smiles": "COc1cc2c(c(OC)c1OC)-c1ccc(OC)c(=O)cc1[C@@H](NC(C)=O)CC2", "note": "[COLCHICINE]", "values": [
      {"measurement": "Activity", "setting": "[1]", "result": "Non-Toxic"},
      {"measurement": "Activity", "setting": "[2]", "result": "Non-Toxic"}
    ]},
    {"smiles": "COC1=C[C@@H]2C3=C([C@@H]2C1=O)[C@@H](NC(C)=O)CCc1cc(O[C@@H]2O[C@H](CO)[C@@H](O)[C@H](O)[C@H]2O)c(O)c(OC)c13", "values": [
      {"measurement": "Activity", "setting": "[1]", "result": "Non-Toxic"},
      {"measurement": "Activity", "setting": "[2]", "result": "Non-Toxic"}
    ]},
    {"smiles": "CC[C@H]1C[N@+]2(O)CCc3cc(O)c(OC)cc3[C@@H]2C[C@@H]1C[C@@H]1NCCc2c1[nH]c1ccc(O)cc21.O=C(O)C(F)(F)F.O=C([O-])C(F)(F)F", "values": [
      {"measurement": "Activity", "setting": "Homo sapiens", "result": "Active"},
      {"measurement": "Activity", "setting": "[1]", "result": "Non-Toxic"},
      {"measurement": "Activity", "setting": "[2]", "result": "Non-Toxic"}
    ]},
    {"smiles": "COC1=C[C@@H]2C3=C([C@@H]2C1=O)[C@@H](NC(C)=O)CCc1cc(OC)c(OC)c(OC)c13", "values": [
      {"measurement": "Activity", "setting": "[1]", "result": "Non-Toxic"},
      {"measurement": "Activity", "setting": "[2]", "result": "Non-Toxic"}
    ]},
    {"smiles": "CC[C@H]1CN2CCc3cc(OC)c(OC)cc3[C@@H]2C[C@@H]1C[C@@H]1NCCc2c1[nH]c1ccc(O)cc21.O=C(O)C(F)(F)F.O=C(O)C(F)(F)F", "values": [
      {"measurement": "Activity", "setting": "Homo sapiens", "result": "Active"},
      {"measurement": "Activity", "setting": "[1]", "result": "Non-Toxic"},
      {"measurement": "Activity", "setting": "[2]", "result": "Non-Toxic"}
    ]},
    {"smiles": "CC[C@H]1CN2CCc3cc(OC)c(OC)cc3[C@@H]2C[C@@H]1C[C@H]1NCCc2c1[nH]c1ccc(O)cc21.O=C(O)C(F)(F)F.O=C(O)C(F)(F)F", "values": [
      {"measurement": "Activity", "setting": "Homo sapiens", "result": "Active"},
      {"measurement": "Activity", "setting": "[1]", "result": "Non-Toxic"},
      {"measurement": "Activity", "setting": "[2]", "result": "Non-Toxic"}
    ]},
    {"smiles": "COC1=C[C@@H]2C3=C([C@@H]2C1=O)[C@@H](NC(C)=O)CCc1cc(OC)c(O)c(OC)c13", "values": [
      {"measurement": "Activity", "setting": "[1]", "result": "Non-Toxic"},
      {"measurement": "Activity", "setting": "[2]", "result": "Non-Toxic"}
    ]},
    {"smiles": "COC1=C[C@@H]2C3=C([C@@H]2C1=O)[C@@H](NC=O)CCc1cc(OC)c(O)c(OC)c13", "values": [
      {"measurement": "Activity", "setting": "[1]", "result": "Non-Toxic"},
      {"measurement": "Activity", "setting": "[2]", "result": "Non-Toxic"}
    ]},
    {"smiles": "CC[C@H]1C[N@@+]2(O)CCc3cc(OC)c(OC)cc3[C@@H]2C[C@@H]1C[C@H]1NCCc2c1[nH]c1ccc(O)cc21.O=C(O)C(F)(F)F.O=C([O-])C(F)(F)F", "values": [
      {"measurement": "Activity", "setting": "Homo sapiens", "result": "Active"},
      {"measurement": "Activity", "setting": "[1]", "result": "Non-Toxic"},
      {"measurement": "Activity", "setting": "[2]", "result": "Non-Toxic"}
    ]},
    {"smiles": "COc1c2c(cc3c1-c1ccc(OC)c(=O)cc1[C@@H](NC(C)=O)CC3)OCO2", "values": [
      {"measurement": "Activity", "setting": "[1]", "result": "Non-Toxic"},
      {"measurement": "Activity", "setting": "[2]", "result": "Non-Toxic"}
    ]},
    {"smiles": "COc1cc2c(c(OC)c1O)-c1ccc(OC)c(=O)cc1[C@@H](NC(C)=O)CC2", "note": "[2-DESMETHYLCOLCHICIN]", "values": [
      {"measurement": "Activity", "setting": "[1]", "result": "Non-Toxic"},
      {"measurement": "Activity", "setting": "[2]", "result": "Non-Toxic"}
    ]},
    {"smiles": "COc1cc2c(c(OC)c1O)-c1ccc(OC)c(=O)cc1[C@@H](NC=O)CC2", "values": [
      {"measurement": "Activity", "setting": "[1]", "result": "Non-Toxic"},
      {"measurement": "Activity", "setting": "[2]", "result": "Non-Toxic"}
    ]}
  ]
}
